For data set [1], the system named is BRCA1-mutated HCC1395 cells. Briefly: Proliferation inhibitory test of BRCA1-mutated HCC1395 cells (CCK-8). As to conditions: Homo sapiens, 120 h, 5 days, read-out: IC50 (nM), inhibitory activity against BRCA1-mutated HCC1395 cells. In kind it is cell-based. Here is the method: CCK-8 was used to measure the content of mitochondrial dehydrogenase in cells at different drug concentrations, and the luminescence intensity was used to reflect the cell activity. The IC50 values of different compounds on BRCA1-mutated HCC1395 cells were calculated using the survival rate, and the proliferation inhibitory effect of the compounds of the present disclosure on BRCA1-mutated HCC1395 cells was studied to evaluate the anti-tumor efficacy of the test compounds at the cellular level.
(§1) On Day −1, the cells were inoculated into the 96-well cell culture plate at a fixed cell density and then placed in the 5% CO2 cell incubator for culture overnight at 37° C.
(§2) On Day 0, the compound to be tested was prepared into a 10 mM stock solution and diluted into 9 concentration points at the concentration of 1,000 nM, 300 nM, 100 nM, 30 nM, 10 nM, 3 nM, 1 nM, 0.3 nM and 0.1 nM in two duplicated wells. A fixed volume of the diluted compound was added to the 96-well cell culture plate and then placed in the 5% CO2 cell incubator for culture at 37° C. for 5 days.
(§3) On Day 5, a fixed volume of CCK-8 was added to the 96-well cell culture plate and incubated in the 5% CO2 cell incubator at 37° C. for 1.5 h, and the plate was read by a chemiluminescence module of the multifunctional microplate reader.
With the logarithmic value of the concentration as an X axis and the survival percentage as a Y axis, a dose-effect curve was fitted by using a log(inhibitor) vs. response-Variable slop (Four parameters) formula of the analysis software Graphpad Prism 9, thereby obtaining the IC50 value of the anti-proliferation inhibitory activity of each compound against BRCA1-mutated HCC1395 cells.

The test system of data set [2] is BRCA1-mutated MDA-MB-436 cells. As to the kind of experiment: Proliferation inhibitory test of BRCA1-mutated MDA-MB-436 cells (CCK-8). In kind it is cell-based. The conditions noted are these: Homo sapiens, 120 h, 5 days, read-out: IC50 (nM), inhibitory activity against BRCA1-mutated MDA-MB-436 cells. As for the experimental part:
CCK-8 was used to measure the content of mitochondrial dehydrogenase in cells at different drug concentrations, and the luminescence intensity was used to reflect the cell activity. The IC50 values of different compounds on BRCA1-mutated MDA-MB-436 cells were calculated using the survival rate, and the proliferation inhibitory effect of the compounds of the present disclosure on BRCA1-mutated MDA-MB-436 cells was studied to evaluate the anti-tumor efficacy of the test compounds at the cellular level.
as §1, §2, §3
With the logarithmic value of the concentration as an X axis and the survival percentage as a Y axis, a dose-effect curve was fitted by using a log(inhibitor) vs. response-Variable slop (Four parameters) formula of the analysis software Graphpad Prism 9, thereby obtaining the IC50 value of the anti-proliferation inhibitory activity of each compound against BRCA1-mutated MDA-MB-436 cells.

A short description of data set [3]: Study on pharmacokinetics of rats (oral gavage, plasma LC-MS/MS). The data set is classed as in vivo. As to conditions: female SD rats; for AUC(0-t) / Cmax / half-life: rat. As for the experimental part: With SD rats as test animals, the plasma concentration in the plasma of rats at different time points after oral administration of the compounds of the present application was determined by an LC-MS/MS method. Pharmacokinetic parameters of the compounds of the present application in rats were obtained to study pharmacokinetic characteristics.
SD rats, female, body weight 180-220 g, 3 rats per group. After being purchased, the animals were fed in an animal house for an adaptation period of at least 3 days and then used for testing after passing quarantine.
3.1. Grouping: The SD rats were randomly grouped according to Table 4, which had no statistical difference in the body weight between groups after grouping.
3.2. Vehicle: 10% DMSO and 90% (20% SBE-β-CD in saline).
According to Table 4, each compound was prepared into a clear solution with the vehicle, respectively, and each group was administered by gavage with the corresponding test drug. Before administration, and at 15 min, 30 min, 1 h, 2 h, 4 h, 6 h, 8 h and 24 h after the administration, a fixed volume of blood was collected through sinuses jugularis, placed in an EDTA-K2 anticoagulant tube, and centrifuged at 4,000 rpm for 10 min to separate the plasma in a centrifuge tube. The plasma was frozen in a refrigerator at −80° C.
The plasma stored at −80° C. at each time point was taken out, and a fixed volume of acetonitrile was added thereto. After being vortexed at 1,500 rpm for 2 min, it was centrifuged for 15 min (3,500 r/min). A fixed volume of solution supernatant was taken for LC-MS/MS analysis.
The pharmacokinetic behaviors of the test compounds were fitted with a non-compartmental model, and the main pharmacokinetic parameters were calculated using DAS3.31 software.

With `CCc1cc2ncc(CN3CCN(c4ccc(C(=O)NC)nc4)CC3)cc2[nH]c1=O` [AZD5305, reference compound], the IC50 in data set [1] was 1.76 nM; in data set [2], 0.67 nM.
Take `CNC(=O)c1ccc(N2CCN(Cc3ccc4nc(C)c(=O)[nH]c4c3F)CC2)c(F)n1` [AZD9574, reference compound]: in data set [3] (po. 3 mg/kg), the Cl_F_obs is 6.17 mL/min/kg, the AUC(0-t) was 6460 ng·h/mL, the Cmax is 702 ng/mL and the half-life is 6.06 h. Moreover, the IC50 in data set [1] is 9.93 nM. The IC50 in data set [2] is 21.8 nM.
Turning to `CNC(=O)c1ccc(N2CCN(Cc3cc(F)c4nc(C)c(=O)[nH]c4c3)CC2)c(C)n1` [Compound 6, 5-(4-((8-fluoro-2-methyl-3-oxo-3,4-dihydroquinoxalin-6-yl)methyl)piperazin-1-yl)-N,6-dimethylpicolinamide], in data set [3] (po. 10 mg/kg), the Cl_F_obs was 2.17 mL/min/kg, the AUC(0-t) is 72600 ng·h/mL, the Cmax was 11300 ng/mL and the half-life is 6.07 h. For the same molecule, the IC50 in data set [1] was found to be 2.45 nM. In addition, in data set [2], the IC50 was 2.06 nM.
Take `CNC(=O)c1ccc(N2CCN(Cc3cc(F)c4nc(C)c(=O)[nH]c4c3)CC2)c(Cl)n1` [Compound 7, 6-chloro-5-(4-((8-fluoro-2-methyl-3-oxo-3,4-dihydroquinoxalin-6-yl)methyl)piperazin-1-yl)-N-methylpicolinamide]: the IC50 in data set [2] was found to be 2.31 nM.
For the molecule `CNC(=O)c1ccc(N2CCN(Cc3cc4[nH]c(=O)c(C)nc4c(F)c3F)CC2)cn1` [Compound 8, 5-(4-((7,8-difluoro-2-methyl-3-oxo-3,4-dihydroquinoxalin-6-yl)methyl)piperazin-1-yl)-N-methylpicolinamide], the IC50 in data set [2] is 11.1 nM.
On the same count and under the same terms, in the case of `CNC(=O)c1ccc(N2CCN(Cc3cc(C)c4nc(C)c(=O)[nH]c4c3)CC2)c(C)n1` [Compound 10, 5-(4-((2,8-dimethyl-3-oxo-3,4-dihydroquinoxalin-6-yl)methyl)piperazin-1-yl)-N,6-dimethylpicolinamide] it was 3.63 nM.
On the same count and under the same terms, in the case of `Cc1nc2c(C)cc(CN3CCN(c4ccc(C#N)c(F)c4)CC3)cc2[nH]c1=O` [Compound 19, 4-(4-((2,8-dimethyl-3-oxo-3,4-dihydroquinoxalin-6-yl)methyl)piperazin-1-yl)-2-fluorobenzonitrile] it was 8.31 nM.
On to `COCCNC(=O)c1ccc(N2CCN(Cc3cc(C)c4nc(C)c(=O)[nH]c4c3)CC2)c(C)n1` [Compound 22, 5-(4-((2,8-dimethyl-3-oxo-3,4-dihydroquinoxalin-6-yl)methyl)piperazin-1-yl)-N-(2-methoxyethyl)-6-methylpicolinamide], for which the IC50 in data set [2] is 6.95 nM.
Regarding `Cc1nc(C(=O)NCC(F)F)ccc1N1CCN(Cc2cc(F)c3nc(C)c(=O)[nH]c3c2)CC1` [Compound 28, N-(2,2-difluoroethyl)-5-(4-((8-fluoro-2-methyl-3-oxo-3,4-dihydroquinoxalin-6-yl)methyl)piperazin-1-yl)-6-methylpicolinamide], the IC50 in data set [1] was 2.03 nM; in data set [2], 4.53 nM.
Turning to `Cc1nc(C(=O)NCCF)ccc1N1CCN(Cc2cc(F)c3nc(C)c(=O)[nH]c3c2)CC1` [Compound 29, 5-(4-((8-fluoro-2-methyl-3-oxo-3,4-dihydroquinoxalin-6-yl)methyl)piperazin-1-yl)-N-(2-fluoroethyl)-6-methylpicolinamide], the IC50 in data set [2] was determined as 9.83 nM.
In the case of `CCc1nc2c(F)cc(CN3CCN(c4ccc(C(=O)NCCF)nc4C)CC3)cc2[nH]c1=O` [Compound 30, 5-(4-((2-ethyl-8-fluoro-3-oxo-3,4-dihydroquinoxalin-6-yl)methyl)piperazin-1-yl)-N-(2-fluoroethyl)-6-methylpicolinamide], the IC50 in data set [2] is 5.94 nM.
As for `CCc1nc2c(F)cc(CN3CCN(c4ccc(C(=O)NCCO)nc4C)CC3)cc2[nH]c1=O` [Compound 31, 5-(4-((2-ethyl-8-fluoro-3-oxo-3,4-dihydroquinoxalin-6-yl)methyl)piperazin-1-yl)-N-(2-hydroxyethyl)-6-methylpicolinamide], the IC50 in data set [2] was determined as 8.77 nM.
Still for that read-out and setting: the same measure for `CCc1nc2c(F)cc(CN3CCN(c4ccc(C(=O)NCC5COC5)nc4C)CC3)cc2[nH]c1=O` [Compound 33, 5-(4-((2-ethyl-8-fluoro-3-oxo-3,4-dihydroquinoxalin-6-yl)methyl)piperazin-1-yl)-6-methyl-N-(oxetan-3-ylmethyl)picolinamide]: 6.91 nM.
In data set [3] (po. 3 mg/kg), `CCc1nc2c(F)cc(CN3CCN(c4ccc(C(=O)NCCOC)nc4C)CC3)cc2[nH]c1=O` [Compound 34, 5-(4-((2-ethyl-8-fluoro-3-oxo-3,4-dihydroquinoxalin-6-yl)methyl)piperazin-1-yl)-N-(2-methoxyethyl)-6-methylpicolinamide] showed a Cl_F_obs of 3 mL/min/kg, an AUC(0-t) of 17000 ng·h/mL, a Cmax of 3230 ng/mL and a half-life of 5.2 h. For the same molecule, the IC50 in data set [2] was determined as 5.87 nM.
Take `CNC(=O)c1ccc(N2CCN(Cc3cc4[nH]c(=O)c(C)nc4cc3OC)CC2)c(Cl)n1` [Compound 37, 6-chloro-5-(4-((7-methoxy-2-methyl-3-oxo-3,4-dihydroquinoxalin-6-yl)methyl)piperazin-1-yl)-N-methylpicolinamide]: the IC50 in data set [1] worked out at 0.95 nM; in data set [2] it was 4.88 nM.
Take `CNC(=O)c1ccc(N2CCN(Cc3cc4[nH]c(=O)c(C)nc4cc3OC)CC2)c(C)n1` [Compound 41, 5-(4-((7-methoxy-2-methyl-3-oxo-3,4-dihydroquinoxalin-6-yl)methyl)piperazin-1-yl)-N,6-dimethylpicolinamide]: in data set [2], the IC50 came out at 6.49 nM.
With `CCc1nc2c(F)cc(CN3CCN(c4ccc(C(=O)NC5COC5)nc4C)CC3)cc2[nH]c1=O` [Compound 42, 5-(4-((2-ethyl-8-fluoro-3-oxo-3,4-dihydroquinoxalin-6-yl)methyl)piperazin-1-yl)-6-methyl-N-(oxetan-3-yl)picolinamide], the IC50 in data set [2] was determined as 4.02 nM.
For the molecule `Cc1nc(C(=O)N[C@@H]2CCOC2)ccc1N1CCN(Cc2cc(F)c3nc(C)c(=O)[nH]c3c2)CC1` [Compound 46, (R)-5-(4-((8-fluoro-2-methyl-3-oxo-3,4-dihydroquinoxalin-6-yl)methyl)piperazin-1-yl)-6-methyl-N-(tetrahydrofuran-3-yl)picolinamide], in data set [2], the IC50 worked out at 8.38 nM.
For the molecule `CNC(=O)c1ccc(N2CCN(Cc3cc(Cl)c4nc(C)c(=O)[nH]c4c3)CC2)c(C)n1` [Compound 51, 5-(4-((8-chloro-2-methyl-3-oxo-3,4-dihydroquinoxalin-6-yl)methyl)piperazin-1-yl)-N,6-dimethylpicolinamide], the IC50 in data set [1] was found to be 1.31 nM; in data set [2] it was 1.05 nM.
As to `Cc1nc(C(=O)NCCF)ccc1N1CCN(Cc2cc3[nH]c(=O)c(C)nc3c(F)c2F)CC1` [Compound 54, 5-(4-((7,8-difluoro-2-methyl-3-oxo-3,4-dihydroquinoxalin-6-yl)methyl)piperazin-1-yl)-N-(2-fluoroethyl)-6-methylpicolinamide], the concentration for half-maximal inhibition (IC50) in data set [2] was determined as 4.97 nM.

For the origin of these results see patent publication US20250346573A1, “AZAQUINOLINONE DERIVATIVE, PREPARATION METHOD THEREFOR AND USE THEREOF” (CHENGDU EASTON BIOPHARMACEUTICALS CO., LTD., priority 2022, published 2025).
